Data taken from article PMC11062899, “De novo development of small cyclic peptides that are orally bioavailable” (Nature Chemical Biology, 2023).
Values joined by “and” are separate entries in the source; they are usually repeats but may differ in a detail not shown here. Identical values can stand only once. Like-named read-outs stand apart in the source and are kept apart here.

How the values were obtained:
rat α-thrombin = biological target: T1, rat α-thrombin (Rattus norvegicus, UniProt P18292); experiment: Protease inhibition, Ki for rat α-thrombin (fluorogenic substrate Z-Gly-Gly-Arg-AMC); assay type: biochemical; details: rat alpha thrombin; for Slope normalized to DMSO (proteolytic substrate cleavage over time): replicates R1-R3
T1 construct: rat α-thrombin (Molecular Innovations) were used at final concentrations of 2 nM and 3 nM; purchased Molecular Innovations
Method in brief: (§1)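 Ki values come from Cheng–Prusoff correction of IC50, itself fitted by four-parameter logistic regression of activity versus a no-peptide control. Assays used 2 nM human or 3 nM rat thrombin, 50 μM Z-Gly-Gly-Arg-AMC, 30 min kinetic fluorescence at 25 °C.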

[1] = Passive artificial membrane permeability (PAMPA)
human α-thrombin = human α-thrombin (Homo sapiens, UniProt P00734); experiment: Protease inhibition, Ki for human α-thrombin (fluorogenic substrate Z-Gly-Gly-Arg-AMC); assay type: biochemical; details: human alpha thrombin; for Slope normalized to DMSO (proteolytic substrate cleavage over time): replicates R1-R3
Method in brief: as §1

porcine pepsin = biological target: T2, porcine pepsin (Sus scrofa, UniProt P00791); experiment: Peptide stability in simulated gastric fluid (SGF); assay type: in vitro ADME
T2 construct: 0.32 g of porcine pepsin (Sigma-Aldrich, P7125) was dissolved under gentle agitation; purchased Sigma-Aldrich P7125
Method in brief: (§2)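 Peptide from a 1 mM DMSO stock was added to fluid pre-warmed at 37 °C. SGF was pH 1.2 NaCl with porcine pepsin (0.32 g per 100 ml), and SIF was pH 6.8 potassium phosphate with porcine pancreatin (1 g per 100 ml). Supernatant peptide was quantified by LC–MS, with residual expressed as T1/T0.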

[2] = Peptide stability in simulated intestinal fluid (SIF); assay type: in vitro ADME, porcine; details: simulated gi fluid; 8 h, 37 °C, pH 6.8; read-out: Proteolytic stability: SIF (8 h) % remaining
Method in brief: as §2

porcine pancreatin = experiment: as above; assay type: in vitro ADME; details: after 8 h vs 0 h (TIC)
Method in brief: as §2

T2 sequence (P00791 60-385): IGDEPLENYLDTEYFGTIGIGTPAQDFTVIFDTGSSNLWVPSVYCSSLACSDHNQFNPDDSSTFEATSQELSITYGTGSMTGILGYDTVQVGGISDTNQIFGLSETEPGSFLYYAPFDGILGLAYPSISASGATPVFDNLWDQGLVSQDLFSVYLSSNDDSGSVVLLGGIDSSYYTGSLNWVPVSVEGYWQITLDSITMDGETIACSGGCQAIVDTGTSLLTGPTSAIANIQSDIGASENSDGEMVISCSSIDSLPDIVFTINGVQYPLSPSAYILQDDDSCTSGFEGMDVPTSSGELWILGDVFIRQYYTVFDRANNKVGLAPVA

SMILES: O=C1C[C@H]2CCCN2C(=O)[C@H](Cc2ccccc2)NC(=O)[C@@H](NC(=O)c2ccc(Cl)s2)CCSCc2cccc(n2)CSCCN1 [compound 33]
- Ki (rat α-thrombin; average of R1-R3, read-out: Ki Average, rat alpha thrombin inhibition): 48.7 nM
- Slope normalized to DMSO (proteolytic substrate cleavage over time) (rat α-thrombin; peptide 1.02E-03 uM): 97.0 and 99.6 and 95.3
- Slope normalized to DMSO (proteolytic substrate cleavage over time) (rat α-thrombin; peptide 1.04E+00 uM): 14.5 and 15.6 and 13.7
- Slope normalized to DMSO (proteolytic substrate cleavage over time) (rat α-thrombin; peptide 1.27E-04 uM): 100.8 and 101.2 and 98.8
- Slope normalized to DMSO (proteolytic substrate cleavage over time) (rat α-thrombin; peptide 1.30E-01 uM): 42.9 and 43.5 and 41.1
- Slope normalized to DMSO (proteolytic substrate cleavage over time) (rat α-thrombin; peptide 1.59E-05 uM): 100.2 and 103.5 and 96.9
- Slope normalized to DMSO (proteolytic substrate cleavage over time) (rat α-thrombin; peptide 1.63E-02 uM): 81.2 and 82.0 and 78.1
- Slope normalized to DMSO (proteolytic substrate cleavage over time) (rat α-thrombin; peptide 1.67E+01 uM): 4.8 and 6.2 and 3.6
- Slope normalized to DMSO (proteolytic substrate cleavage over time) (rat α-thrombin; peptide 2.03E-03 uM): 97.0 and 98.5 and 91.0
- Slope normalized to DMSO (proteolytic substrate cleavage over time) (rat α-thrombin; peptide 2.08E+00 uM): 9.6 and 11.2 and 10.1
- Slope normalized to DMSO (proteolytic substrate cleavage over time) (rat α-thrombin; peptide 2.54E-04 uM): 101.1 and 99.8 and 96.9
- Slope normalized to DMSO (proteolytic substrate cleavage over time) (rat α-thrombin; peptide 2.60E-01 uM): 27.4 and 28.5 and 28.0
- Slope normalized to DMSO (proteolytic substrate cleavage over time) (rat α-thrombin; peptide 3.18E-05 uM): 101.5 and 104.3 and 97.0
- Slope normalized to DMSO (proteolytic substrate cleavage over time) (rat α-thrombin; peptide 3.26E-02 uM): 78.3 and 77.8 and 74.1
- Slope normalized to DMSO (proteolytic substrate cleavage over time) (rat α-thrombin; peptide 3.33E+01 uM): 5.1 and 5.9 and 3.3
- Slope normalized to DMSO (proteolytic substrate cleavage over time) (rat α-thrombin; peptide 4.07E-03 uM): 94.4 and 95.7 and 92.3
- Slope normalized to DMSO (proteolytic substrate cleavage over time) (rat α-thrombin; peptide 4.17E+00 uM): 6.3 and 7.7 and 3.6
- Slope normalized to DMSO (proteolytic substrate cleavage over time) (rat α-thrombin; peptide 5.09E-04 uM): 98.0 and 98.3 and 95.3
- Slope normalized to DMSO (proteolytic substrate cleavage over time) (rat α-thrombin; peptide 5.21E-01 uM): 18.6 and 18.9 and 16.5
- Slope normalized to DMSO (proteolytic substrate cleavage over time) (rat α-thrombin; peptide 6.36E-05 uM): 100.6 and 99.7 and 96.2
- Slope normalized to DMSO (proteolytic substrate cleavage over time) (rat α-thrombin; peptide 6.51E-02 uM): 60.0 and 58.6 and 62.0
- Slope normalized to DMSO (proteolytic substrate cleavage over time) (rat α-thrombin; peptide 6.67E+01 uM): 5.5 and 6.9 and 1.9
- Slope normalized to DMSO (proteolytic substrate cleavage over time) (rat α-thrombin; peptide 7.95E-06 uM): 105.3 and 103.4 and 99.9
- Slope normalized to DMSO (proteolytic substrate cleavage over time) (rat α-thrombin; peptide 8.14E-03 uM): 89.5 and 90.6 and 84.9
- Slope normalized to DMSO (proteolytic substrate cleavage over time) (rat α-thrombin; peptide 8.33E+00 uM): 6.7 and 6.6 and 4.7
- IC50 (rat α-thrombin; single replicates R1-R3, read-out: IC50, rat alpha thrombin inhibition): 86.2 nM and 82.3 nM and 95.4 nM
- Ki (rat α-thrombin; single replicates R1-R3, read-out: Ki, rat alpha thrombin inhibition): 47.7 nM (2×) and 45.6 nM (2×) and 52.8 nM (2×)
- PAMPA permeability: % permeability ([1]; 50 μM, 12–18 h, acceptor concentration relative to equilibrium): 45 ± 10%
- Papp at 50 μM ([1]; PAMPA, pH 7.4): 5.89 ×10⁻⁶ cm/s
- Permeability% Average ([1]; top well sample vs theoretical equilibrium sample (TIC), average of R1-R3): 45.3%
- Permeability% ([1]; top well sample vs theoretical equilibrium sample (TIC), single replicates R1-R3): 55.48% and 44.56% and 35.81%
- Ki (human α-thrombin; average of R1-R3, read-out: Ki Average, human alpha thrombin inhibition): 96.6 nM
- Slope normalized to DMSO (proteolytic substrate cleavage over time) (human α-thrombin; peptide 1.02E-03 uM): 103.0 and 105.2 and 102.2
- Slope normalized to DMSO (proteolytic substrate cleavage over time) (human α-thrombin; peptide 1.04E+00 uM): 21.7 and 19.1 and 21.5
- Slope normalized to DMSO (proteolytic substrate cleavage over time) (human α-thrombin; peptide 1.27E-04 uM): 106.0 and 98.8 and 103.2
- Slope normalized to DMSO (proteolytic substrate cleavage over time) (human α-thrombin; peptide 1.30E-01 uM): 57.8 and 50.1 and 54.9
- Slope normalized to DMSO (proteolytic substrate cleavage over time) (human α-thrombin; peptide 1.59E-05 uM): 109.2 and 97.6 and 100.1
- Slope normalized to DMSO (proteolytic substrate cleavage over time) (human α-thrombin; peptide 1.63E-02 uM): 89.4 and 85.3 and 86.8
- Slope normalized to DMSO (proteolytic substrate cleavage over time) (human α-thrombin; peptide 1.67E+01 uM): 7.7 and 6.1 and 7.5
- Slope normalized to DMSO (proteolytic substrate cleavage over time) (human α-thrombin; peptide 2.03E-03 uM): 102.9 and 97.6 and 97.7
- Slope normalized to DMSO (proteolytic substrate cleavage over time) (human α-thrombin; peptide 2.08E+00 uM): 19.7 and 13.9 and 8.6
- Slope normalized to DMSO (proteolytic substrate cleavage over time) (human α-thrombin; peptide 2.54E-04 uM): 113.7 and 102.5 and 100.7
- Slope normalized to DMSO (proteolytic substrate cleavage over time) (human α-thrombin; peptide 2.60E-01 uM): 43.1 and 35.0 and 39.7
- Slope normalized to DMSO (proteolytic substrate cleavage over time) (human α-thrombin; peptide 3.18E-05 uM): 105.3 and 102.8 and 93.4
- Slope normalized to DMSO (proteolytic substrate cleavage over time) (human α-thrombin; peptide 3.26E-02 uM): 88.2 and 77.6 and 78.4
- Slope normalized to DMSO (proteolytic substrate cleavage over time) (human α-thrombin; peptide 3.33E+01 uM): 6.8 and 6.6
- Slope normalized to DMSO (proteolytic substrate cleavage over time) (human α-thrombin; peptide 4.07E-03 uM): 95.5 and 99.8 and 99.7
- Slope normalized to DMSO (proteolytic substrate cleavage over time) (human α-thrombin; peptide 4.17E+00 uM): 12.3 and 14.8 and 9.6
- Slope normalized to DMSO (proteolytic substrate cleavage over time) (human α-thrombin; peptide 5.09E-04 uM): 101.7 and 102.5 and 100.0
- Slope normalized to DMSO (proteolytic substrate cleavage over time) (human α-thrombin; peptide 5.21E-01 uM): 26.3 and 24.6 and 23.6
- Slope normalized to DMSO (proteolytic substrate cleavage over time) (human α-thrombin; peptide 6.36E-05 uM): 99.2 and 97.4 and 102.8
- Slope normalized to DMSO (proteolytic substrate cleavage over time) (human α-thrombin; peptide 6.51E-02 uM): 70.8 and 64.0 and 70.3
- Slope normalized to DMSO (proteolytic substrate cleavage over time) (human α-thrombin; peptide 6.67E+01 uM): 6.9 and 8.6 and 6.6
- Slope normalized to DMSO (proteolytic substrate cleavage over time) (human α-thrombin; peptide 7.95E-06 uM): 102.4 and 98.2 and 102.1
- Slope normalized to DMSO (proteolytic substrate cleavage over time) (human α-thrombin; peptide 8.14E-03 uM): 92.1 and 87.0 and 91.2
- Slope normalized to DMSO (proteolytic substrate cleavage over time) (human α-thrombin; peptide 8.33E+00 uM): 12.3 and 13.7 and 5.0
- IC50 (human α-thrombin; single replicates R1-R3, read-out: IC50, human alpha thrombin inhibition): 139 nM and 101 nM and 135 nM
- Ki (human α-thrombin; single replicates R1-R3, read-out: Ki, human alpha thrombin inhibition): 108 nM and 78 nM and 104 nM
- SGF stability, Residual peptide Average (porcine pepsin; after 8 h vs 0 h (TIC), average of R1-R3): 94.64
- SGF stability, Residual peptide (porcine pepsin; after 8 h vs 0 h (TIC), single replicates R1-R3): 93.36 and 101.37 and 89.19
- remaining at 8 h (porcine pepsin; simulated gi fluid, 8 h, 37 °C, pH 1.2, read-out: Proteolytic stability: SGF (8 h) % remaining): 95 ± 6%
- remaining at 8 h [2]: 69 ± 6%
- SIF stability, Residual peptide Average (porcine pancreatin; average of R1-R3): 68.57
- SIF stability, Residual peptide (porcine pancreatin; single replicates R1-R3): 74.90 and 62.29 and 68.52
